Source: ChEMBL document CHEMBL1150225, “Cytotoxic cholestane glycosides from the bulbs of Ornithogalum saundersiae” (J Nat Prod, 2001)

Assays:
Format in all cases: functional
Malme-3M = experiment: Cytotoxicity against human MALME-3M cells
M14 = experiment: Cytotoxicity against human M14 cells
SK-MEL-2 = experiment: Cytotoxicity against human SK-MEL-2 cells
SK-MEL-28 = experiment: Cytotoxicity against human SK-MEL-28 cells
SK-MEL-5 = experiment: Cytotoxicity against human SK-MEL-5 cells
UACC-257 = experiment: Cytotoxicity against human UACC257 cells
UACC-62 = experiment: Cytotoxicity against human UACC62 cells
IGROV-1 = experiment: Cytotoxicity against human IGROV1 cells
OVCAR-3 = experiment: Cytotoxicity against human OVCAR-3 cells
OVCAR-4 = experiment: Cytotoxicity against human OVCAR4 cells
OVCAR-5 = experiment: Cytotoxicity against human OVCAR5 cells
OVCAR-8 = experiment: Cytotoxicity against human OVCAR8 cells
SK-OV-3 = experiment: Cytotoxicity against human SKOV3 cells
786-0 = experiment: Cytotoxicity against human 786-0 cells
A498 = experiment: Cytotoxicity against human A498 cells
ACHN = experiment: Cytotoxicity against human ACHN cells
CAKI-1 = experiment: Cytotoxicity against human Caki1 cells
RXF 393 = experiment: Cytotoxicity against human RXF393 cells
SN12C = experiment: Cytotoxicity against human SN12C cells
TK-10 = experiment: Cytotoxicity against human TK10 cells
UO-31 = experiment: Cytotoxicity against human UO31 cells
PC-3 = experiment: Cytotoxicity against human PC3 cells
DU-145 = experiment: Cytotoxicity against human DU145 cells
MCF7 = experiment: Cytotoxicity against human MCF7 cells
[1] = Cytotoxicity against human MCF7/ADR cells; conditions: NCI/ADR-RES
MDA-MB-231 = experiment: Cytotoxicity against human MDA-MB-231 cells
[2] = Cytotoxicity against human Hs 578T cells
MDA-MB-435 = experiment: Cytotoxicity against human MDA-MB-435 cells
MDA-N = experiment: Cytotoxicity against human MDA-N cells
BT-549 = experiment: Cytotoxicity against human BT549 cells
[3] = read-out: pLC50 (the source's name) (converted)

**Q.** Which results are given for `COc1ccc(C(=O)O[C@H]2[C@H](O[C@@H]3[C@@H](OC(C)=O)[C@H](O[C@H]4C[C@H]5[C@@H]6CC=C7C[C@@H](O)CC[C@]7(C)[C@H]6CC[C@]5(C)[C@@]4(O)[C@H](C)C(=O)CCC(C)C)OC[C@@H]3O)OC[C@@H](O)[C@@H]2O)cc1`?
**A.** GI50 (Malme-3M): 0.631 nM; CC50 (Malme-3M; [3]): 2400 nM; TGI (Malme-3M; read-out: pTGI (converted)): 2.29 nM; GI50 (M14): 0.269 nM; CC50 (M14; [3]): 51.3 nM; TGI (M14; read-out: pTGI (converted)): 0.955 nM; GI50 (SK-MEL-2): 0.347 nM; CC50 (SK-MEL-2; [3]): 5500 nM; TGI (SK-MEL-2; read-out: pTGI (converted)): 17 nM; GI50 (SK-MEL-28): 0.182 nM; CC50 (SK-MEL-28; [3]): 25.7 nM; TGI (SK-MEL-28; read-out: pTGI (converted)): 1.1 nM; GI50 (SK-MEL-5): 0.759 nM; CC50 (SK-MEL-5; [3]): 282 nM; TGI (SK-MEL-5; read-out: pTGI (converted)): 43.6 nM; GI50 (UACC-257): 0.933 nM; CC50 (UACC-257; [3]): 40.7 nM; TGI (UACC-257; read-out: pTGI (converted)): 1.29 nM; GI50 (UACC-62): 0.309 nM; CC50 (UACC-62; [3]): 3.63 nM; TGI (UACC-62; read-out: pTGI (converted)): 1.29 nM; GI50 (IGROV-1): 1.51 nM; CC50 (IGROV-1; [3]): 6920 nM; TGI (IGROV-1; read-out: pTGI (converted)): 1910 nM; GI50 (OVCAR-3): 9.55 nM; CC50 (OVCAR-3; [3]): 4680 nM; TGI (OVCAR-3; read-out: pTGI (converted)): 2000 nM; GI50 (OVCAR-4): 3.63 nM; CC50 (OVCAR-4; [3]): 5750 nM; TGI (OVCAR-4; read-out: pTGI (converted)): 2190 nM; GI50 (OVCAR-5): 50.1 nM; CC50 (OVCAR-5; [3]): 5890 nM; TGI (OVCAR-5; read-out: pTGI (converted)): 2000 nM; GI50 (OVCAR-8): 15.1 nM; CC50 (OVCAR-8; [3]): 5370 nM; TGI (OVCAR-8; read-out: pTGI (converted)): 1580 nM; GI50 (SK-OV-3): 3.98 nM; CC50 (SK-OV-3; [3]): 10000 nM; TGI (SK-OV-3; read-out: pTGI (converted)): 1200 nM; GI50 (786-0): 0.0617 nM; CC50 (786-0; [3]): 3470 nM; TGI (786-0; read-out: pTGI (converted)): 1200 nM; GI50 (A498): 0.24 nM; CC50 (A498; [3]): 141 nM; TGI (A498; read-out: pTGI (converted)): 2.19 nM; GI50 (ACHN): 7.94 nM; CC50 (ACHN; [3]): 7240 nM; TGI (ACHN; read-out: pTGI (converted)): 2190 nM; GI50 (CAKI-1): 1.7 nM; CC50 (CAKI-1; [3]): 871 nM; TGI (CAKI-1; read-out: pTGI (converted)): 49 nM; GI50 (RXF 393): 0.0708 nM; CC50 (RXF 393; [3]): 407 nM; TGI (RXF 393; read-out: pTGI (converted)): 18.2 nM; GI50 (SN12C): 1290 nM; CC50 (SN12C; [3]): 6760 nM; TGI (SN12C; read-out: pTGI (converted)): 2880 nM; GI50 (TK-10): 77.6 nM; CC50 (TK-10; [3]): 8910 nM; TGI (TK-10; read-out: pTGI (converted)): 1910 nM; GI50 (UO-31): 0.617 nM; CC50 (UO-31; [3]): 30.2 nM; TGI (UO-31; read-out: pTGI (converted)): 1.41 nM; GI50 (PC-3): 0.209 nM; CC50 (PC-3; [3]): 389 nM; TGI (PC-3; read-out: pTGI (converted)): 1.58 nM; GI50 (DU-145): 3.71 nM; CC50 (DU-145; [3]): 4270 nM; TGI (DU-145; read-out: pTGI (converted)): 1510 nM; GI50 (MCF7): 0.813 nM; CC50 (MCF7; [3]): 3630 nM; TGI (MCF7; read-out: pTGI (converted)): 1200 nM; GI50 [1]: 24 nM; CC50 [1, 3]: 6610 nM; TGI ([1]; read-out: pTGI (converted)): 2000 nM; GI50 (MDA-MB-231): 19.1 nM; CC50 (MDA-MB-231; [3]): 5370 nM; TGI (MDA-MB-231; read-out: pTGI (converted)): 1290 nM; GI50 [2]: 0.0537 nM; CC50 [2, 3]: 2000 nM; TGI ([2]; read-out: pTGI (converted)): 0.741 nM; GI50 (MDA-MB-435): 0.575 nM; CC50 (MDA-MB-435; [3]): 407 nM; TGI (MDA-MB-435; read-out: pTGI (converted)): 8.91 nM; GI50 (MDA-N): 0.776 nM; CC50 (MDA-N; [3]): 490 nM; TGI (MDA-N; read-out: pTGI (converted)): 8.91 nM; GI50 (BT-549): 1.82 nM
